Results reported in patent US8470805B2, “Processes for preparing piperazinium salts of KMUP and use thereof” (Kaohsiung Medical University, priority 2009, dated 2013).

Experiments:
[1] = system: L1210 leukemia cell line; test: Cytotoxicity to cancer cells, MTT assay; format: cell-based; conditions: 3 days, n=6
Description: The methotrexate (MTX) is served as the positive control group. Briefly, the cancer cells (5000-10000 cells/ml) is added together with the compounds to be tested into each well of 96-well plate. After culturing for 3 days, the attached cells are cultured in MTT (0.5 mg/ml) for one hour, followed by dissolving the formazan crystal with dimethyl sulfoxide (DMSO). The absorption at 550 nm wave length is measured by the enzyme linked immunosorbent assay (ELISA) reader. IC50 is the concentration of the tested compound for inhibiting 50% cell growth under the experimental conditions.

[2] = system: U46619-induced platelet aggregation; test: Antiplatelet aggregation activity (U46619-induced, turbidity, Lumi-aggregometer); format: cell-based; conditions: 20 μM, rabbit platelets, n=8
Description: 4. […] After centrifuging at […] for 10 mins, the supernatant is platelet-rich plasma (PRP). The platelet suspension is obtained from EDTA-anticoagulated PRP, and the platelet granules are finally suspended in the Tyrode's solution. […] The turbidity is measured at 37° C. by Lumi-aggregometer connected with two dual channel recorders as the aggregation.

[3] = system: monocrotaline (MCT)-treated rats; test: Pulmonary artery blood pressure in monocrotaline (MCT)-treated rats; format: in vivo, male Wistar rats; conditions: 2.5 mg/kg/day p.o.
Description: 5. the monocrotaline (MCT)-treated rats show the […] pulmonary aterial hypertension
Pulmonary aterial hypertension in MCT-treated rats is caused on day 21 after the intraperitoneal injection. Orally administered KMUP-1 HCl salt (2.5 mg/kg), simvastatin (2.5 mg/kg), KMUP-1-nicotinic acid complex (2.5 mg/kg), KMUP-1-Citric acid complex (2.5 mg/kg), KMUP-1-Simvastatinic acid complex (2.5 mg/kg) and KMUP-1-γ-Polyglutamic acid complex (2.5 mg/kg), or the inhalated KMUP-1-PGI2 (0.1 mM) every day may inhibit the male Wistar rats treated with MCT, which show the effect of decreasing the pulmonary artery blood pressure (PABP).

[4] = system: testosterone-induced mice; test: Prostate hypertrophy (BPH) in testosterone-induced mice; format: in vivo; conditions: 2.5 mg/kg, testosterone 3 mg/kg/day for 4 weeks, day 28, n=6
Description: The testosterone (TS, 3 mg/kg/day) is administered for 4 weeks for inducing BPH in mice, which combines with KMUP-1 HCl salt (2.5 mg/kg), KMUP-1-Citric acid (2.5 mg/kg) and KMUP-1-Nicotinic acid (2.5 mg/kg), and the ratio of hypertrophy (g)/body weight (g) is measured at day 28 (n=6).

[5] = system: C57BL/6J mice; test: The lipid-lowering effect in C57BL/6J mice (high-fat diet); format: in vivo; conditions: HFD, after 21 days
Description: (§1) 8-week C57BL/6J mice are divided into standard diet (STD) group and the high-fat diet (HFD) group. In the HFD group, the KMUP-1 HCl salt (1, 2.5 and 5 mg/kg), the simvastatin (5 mg/kg), the KMUP-1-Nicotinic acid complex (1 and 5 mg/kg), the KMUP-1-Simvastatinic acid complex (1 and 5 mg/kg), KMUP-1-Gemfibrozil complex (2.5 mg/kg), KMUP-1-Fibric acid complex (2.5 mg/kg), KMUP-1-γ-polyglutamic acid complex (2.5 mg/kg) and KMUP-1-Citric acid complex (2.5 mg/kg) are administered orally. After 21 days, the amounts (mg/dl) of the triglyceride (TG), the total cholesterol (tot.-C), the high density lipoprotein cholesterol (HDL-C), the low density lipoprotein cholesterol (LDL-C) and the serum glucose of six mice for each group are measured as shown in Tables 2 and 3.

[6] = system: H1N1 virus; format: cell-based; conditions: MDCK culture infected with H1N1 virus
[7] = system: TGF-β; test: Bleomycin-induced lung fibrosis in mice, TGF-β expression by EIA; format: in vivo; conditions: 2.5 mg/kg orally, bleomycin 60 mg/kg
Description: 6. KMUP-1 salts inhibit the lung fibrosis in mice induced by bleomycin (BM) mediated via transforming growth factor beta (TGF-β) expression in lung The increased amount of the synthetic collagen and the generation of the macrophage in alveolus may facilitate the formulation of TGF-β, and the expression of TGF-β is looked as a biomarker of the lung fibrosis. […] The state of the TGF-β expression in the irrigation solution is measured by the enzyme immunoassay (EIA).

[8] = system: C57BL/6J mice; test: The amount of the serum glucose and insulin in C57BL/6J mice (high-fat diet); format: in vivo; conditions: 1 mg/kg orally, HFD, after 21 days
Description: as §1

[9] = system: STZ-induced diabetic rats; test: Change of insulin and fasting blood glucose after administration, STZ-induced diabetic rats; format: in vivo
Description: Nateglinide, repaglinide or the placebo is administered on day 1 before one hour of the breakfast, and the KMUP-1/KMUP-1-Nateglinide or KMUP-1-Repaglinide are orally administered at 1, 2, 3, 4, 5 and 6 hrs respectively. The amount of the serum glucose (mg/dl), the amount of the serum insulin (mg/dl), the body weight (g) and the change of the body weight are measured.

[10] = system: STZ-induced diabetic rats; test: Serum glucose and body weight in streptozosin (STZ)-induced diabetic rats; format: in vivo; conditions: after 21 days
Description: 2. The effect of KMUP-1 on decreasing the amount of the serum glucose in streptozosin (STZ)-induced diabetic rats
60 mg/kg of streptozosin is injected intravenously for inducing the STZ-induced rats, and the KMUP-1 HCl salt (0.5, 1.5, 2.5 and 5 mg/kg) and KMUP-1-Simvastatinic acid (5 mg/kg) are administered orally. After 21 days, the amount of the serum glucose (mg/dl), the amount of the serum insulin (mg/dl), the body weight (g) and the change of the body weight are measured.

[11] = system: RAW 264.7 cells; test: Inhibition of RANKL-induced osteoclast differentiation (TRAP staining); format: cell-based; conditions: 5 μM, RANKL 10 μg/ml, 5 days, n=5

Compound `CN(Cc1cnc2nc(N)nc(N)c2n1)c1ccc(C(=O)N[C@@H](CCC(=O)O)C(=O)O)cc1.Cn1c(=O)c2c(ncn2CCN2CCN(c3ccccc3Cl)CC2)n(C)c1=O` [KMUP-1-MTX, KMUP-1-Methotrexate (MTX) Complex] has an IC50 [1] of 20 nM.

`Cn1c(=O)c2c(ncn2CCN2CCN(c3ccccc3Cl)CC2)n(C)c1=O.O=C(O)CC(O)(CC(=O)O)C(=O)O` [KMUP-1-Citric acid, KMUP-1-Citric acid salt] was tested, and the “The ratio of the antiplatelet aggregation” value [2] was 78 ± 2.7 %, the PABP [3] was 16 ± 1.8 mmHg and the “hypertrophy (g)/body weight (g)” value [4] was 0.23 ± 0.05. The HDL-C ([5]; 2.5 mg/kg orally) was 108.4 ± 1.3 mg/dL, the LDL-C ([5]; 2.5 mg/kg orally) was 16.4 ± 1.7 mg/dL and the TG ([5]; 2.5 mg/kg orally) was 83.2 ± 5.3 mg/dL. It also gave a tot.-C ([5]; 2.5 mg/kg orally) of 129.7 ± 1.6 mg/dL.

With `Cl.Cn1c(=O)c2c(ncn2CCN2CCN(c3ccccc3Cl)CC2)n(C)c1=O` [KMUP-1 HCl salt, 7-[2-[4-(2-chlorobenzene)piperazinyl]ethyl]-1,3-dimethyl xanthine HCl] the IC50 [1] was 26 nM, the “growth of the virus (in words)” value ([6]; in glucose solution) was “can inhibit the growth of the virus” and the IC50 ([6]; n=6) was 5.2 µg/mL. The “The ratio of the antiplatelet aggregation” value [2] was 89 ± 3.4 %, the PABP [3] was 13 ± 1.7 mmHg and the “hypertrophy (g)/body weight (g)” value [4] was 0.21 ± 0.04. For the same compound, the “Changing % of the lung TGF-β” value [7] was 52 ± 5.2 %, the HDL-C ([5]; 2.5 mg/kg orally) was 103.55 ± 4.2 mg/dL and the LDL-C ([5]; 2.5 mg/kg orally) was 14.17 ± 1.4 mg/dL. The TG ([5]; 2.5 mg/kg orally) was 74.5 ± 5.1 mg/dL, the tot.-C ([5]; 2.5 mg/kg orally) was 133 ± 5.1 mg/dL and the HDL-C ([5]; 5 mg/kg orally) was 118.32 ± 5.7 mg/dL. The LDL-C ([5]; 5 mg/kg orally) was 14.2 ± 2.2 mg/dL, the TG ([5]; 5 mg/kg orally) was 72.67 ± 4.7 mg/dL and the tot.-C ([5]; 5 mg/kg orally) was 125.5 ± 9.8 mg/dL. The “The amount of serum glucose” value [8] was 120.4 ± 4.2 mg/dL, the “The change of the fasting blood glucose after administration” value (“The change of the fasting blood glucose” below) ([9]; 1 mg/kg, 1 hr) was 3.7 ± 0.6 mg/dL and the “The change of the insulin after administration” value (shortened to “The change of the insulin”) ([9]; 1 mg/kg, 1 hr) was 10.1 ± 1.8 U/mL. For the same compound, the “The change of the fasting blood glucose” value ([9]; 1 mg/kg, 2 hr) was 2.3 ± 0.7 mg/dL, the “The change of the insulin” value ([9]; 1 mg/kg, 2 hr) was 16.4 ± 2.2 U/mL and the “The change of the insulin” value ([9]; 1 mg/kg, 3 hr) was 12.6 ± 2.4 U/mL. The “The change of the insulin” value ([9]; 1 mg/kg, 4 hr) was 6.7 ± 2.4 U/mL, the “The change of the fasting blood glucose” value ([9]; 1 mg/kg, 6 hr) was 0.1 ± 0.5 mg/dL and the “The change of the insulin” value ([9]; 1 mg/kg, 6 hr) was 1.8 ± 0.7 U/mL. For the same compound, the “The change of the fasting blood glucose” value ([9]; 2 mg/kg, 1 hr) was 4.3 ± 0.4 mg/dL, the “The change of the insulin” value ([9]; 2 mg/kg, 1 hr) was 26.4 ± 1.3 U/mL and the “The change of the fasting blood glucose” value ([9]; 2 mg/kg, 2 hr) was 2.5 ± 0.2 mg/dL. For the same compound, the “The change of the insulin” value ([9]; 2 mg/kg, 2 hr) was 30.6 ± 4.6 U/mL, the “The change of the insulin” value ([9]; 2 mg/kg, 3 hr) was 13.8 ± 3.6 U/mL and the “The change of the insulin” value ([9]; 2 mg/kg, 4 hr) was 9.5 ± 1.7 U/mL. The “The change of the fasting blood glucose” value ([9]; 2 mg/kg, 6 hr) was 0.3 ± 0.7 mg/dL, the “The change of the insulin” value ([9]; 2 mg/kg, 6 hr) was 4.6 ± 0.8 U/mL and the “The change of the fasting blood glucose” value ([9]; 3 mg/kg, 1 hr) was 5.2 ± 0.9 mg/dL. The “The change of the insulin” value ([9]; 3 mg/kg, 1 hr) was 38.2 ± 3.8 U/mL, the “The change of the fasting blood glucose” value ([9]; 3 mg/kg, 2 hr) was 1.7 ± 0.1 mg/dL and the “The change of the insulin” value ([9]; 3 mg/kg, 2 hr) was 32.6 ± 6.4 U/mL. For the same compound, the “The change of the insulin” value ([9]; 3 mg/kg, 3 hr) was 21.4 ± 2.6 U/mL, the “The change of the insulin” value ([9]; 3 mg/kg, 4 hr) was 18.4 ± 2.4 U/mL and the “The change of the fasting blood glucose” value ([9]; 3 mg/kg, 6 hr) was -0.1 ± 0.3 mg/dL. The “The change of the insulin” value ([9]; 3 mg/kg, 6 hr) was 7.4 ± 3.6 U/mL, the “The change of the fasting blood glucose” value ([9]; 4 mg/kg, 1 hr) was 5.7 ± 0.8 mg/dL and the “The change of the insulin” value ([9]; 4 mg/kg, 1 hr) was 37.4 ± 3.6 U/mL. The “The change of the fasting blood glucose” value ([9]; 4 mg/kg, 2 hr) was 1.5 ± 0.2 mg/dL, the “The change of the insulin” value ([9]; 4 mg/kg, 2 hr) was 47.3 ± 2.3 U/mL and the “The change of the insulin” value ([9]; 4 mg/kg, 3 hr) was 27.8 ± 2.8 U/mL. The “The change of the insulin” value ([9]; 4 mg/kg, 4 hr) was 14.8 ± 3.7 U/mL, the “The change of the fasting blood glucose” value ([9]; 4 mg/kg, 6 hr) was -0.3 ± 0.1 mg/dL and the “The change of the insulin” value ([9]; 4 mg/kg, 6 hr) was 2.8 ± 0.5 U/mL. For the same compound, the “The amount of the serum glucose” value ([10]; 0.5 mg/kg orally) was 215.4 ± 19.6 mg/dL, the “The amount of the serum glucose” value ([10]; 1.5 mg/kg orally) was 215.4 ± 23.8 mg/dL and the “The amount of the serum glucose” value ([10]; 2.5 mg/kg orally) was 210.4 ± 15.7 mg/dL. The “The amount of the serum glucose” value ([10]; 5 mg/kg orally) was 200.2 ± 14.2 mg/dL and the “TRAP-Positive Cells” value [11] was 80 ± 6.

Compound `CN(Cc1cnc2nc(N)nc(N)c2n1)c1ccc(C(=O)N[C@@H](CCC(=O)O)C(=O)O)cc1` [MTX, methotrexate, reference compound] has an IC50 ([1]; Mus musculus, 72 h) of 12 nM.
